Reference: US8946189B2, “Transplants” (priority 2007, dated 2015)
“And” between values parts separate entries of the source, which are not always exact repeats. Equal entries are not always repeated. “Also recorded” adds a separate entry of the source.

Experiments:
[1] = tested on: human saphenous vein rings and rat aortic rings; type: cell-based
[2] = oral and/or intravenous, 10, 25, 50 and 100 mg/kg body weight; cited from earlier work
[3] = target: human NK(1) receptor (Homo sapiens, UniProt P25103); settings: cited from earlier work
human NK(1) receptor, sequence (P25103 whole entry): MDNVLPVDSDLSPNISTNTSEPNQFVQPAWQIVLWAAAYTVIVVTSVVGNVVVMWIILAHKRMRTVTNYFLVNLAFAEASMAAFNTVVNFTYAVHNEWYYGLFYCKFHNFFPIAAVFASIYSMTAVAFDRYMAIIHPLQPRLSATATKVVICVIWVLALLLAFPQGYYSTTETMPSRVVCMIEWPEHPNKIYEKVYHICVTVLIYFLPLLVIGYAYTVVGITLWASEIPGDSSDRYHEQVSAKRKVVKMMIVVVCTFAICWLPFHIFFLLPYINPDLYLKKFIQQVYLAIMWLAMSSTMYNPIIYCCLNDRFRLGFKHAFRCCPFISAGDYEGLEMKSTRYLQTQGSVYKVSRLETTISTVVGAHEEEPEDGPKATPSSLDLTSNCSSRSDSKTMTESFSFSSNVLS

[4] = tested on: NK(2) and NK(3) receptors; settings: vs NK(1); cited from earlier work
[5] = in vivo; cited from earlier work
[6] = tested on: vascular smooth muscle cells; settings: cited from earlier work
[7] = tested on: isolated rat aortic rings; assay: Organ bath tension of isolated rat aortic rings (intact and denuded) precontracted with norepinephrine; type: cell-based; settings: for Tension of aortic rings: after 0.3 uM norepinephrine
[8] = cited from earlier work

Compound: Botulinum toxin type A
- Relaxation of vascular smooth muscle [1]: dose dependent relaxation

Compound: NC(=O)c1ncn([C@@H]2O[C@H](CO)[C@@H](O)[C@H]2O)c1N [Acadesine, 5-amino-4-imidazole carboxamide ribonucleoside]
- Safety in humans [2]: safe in humans

Compound: Cc1cccc(C)c1NC(=O)C[C@H]1CCN(C(=O)c2cc(C(F)(F)F)cc(C(F)(F)F)c2)[C@@H](Cc2ccccc2)C1.O=C(O)C[C@H](O)C(=O)O (relative stereo) [R116301, (2R-trans)-4-[1-[3,5-bis(trifluoromethyl)benzoyl]-2-(phenylmethyl)-4-piperidinyl]-N-(2,6-dimethylphenyl)-1-acetamide (S)-Hydroxybutanedioate]
- Ki [3]: 0.45 nM
- Selectivity toward NK(2) and NK(3) receptors [4]: over 200 fold

Compound: CSCC[C@@H]1NC(=O)[C@H](CC(C)C)NC(=O)[C@H](CCCNC(=N)N)NC(=O)[C@H](CO)NC(=O)[C@@H]2CSSC[C@@H]3NC(=O)[C@H](CO)NC(=O)CNC(=O)[C@H]([C@@H](C)O)NC(=O)[C@H](CSSC[C@H](N)C(=O)N[C@@H](CCCCN)C(=O)NCC(=O)N[C@@H](CCCCN)C(=O)NCC(=O)N[C@@H](C)C(=O)N[C@@H](CCCCN)C(=O)N2)NC(=O)[C@H](CSSC[C@@H](C(N)=O)NC(=O)[C@H](CCCCN)NC(=O)CNC(=O)[C@H](CO)NC(=O)[C@H](CCCNC(=N)N)NC3=O)NC(=O)[C@H](CC(=O)O)NC(=O)[C@H](Cc2ccc(O)cc2)NC1=O [Omega conotoxin MVIIA]
- Potency as an analgesic relative to morphine [5]: 100-1000 fold

Compound: OCCN(CCO)c1nc(N2CCCCC2)c2nc(N(CCO)CCO)nc(N3CCCCC3)c2n1 [Dipyridamole]
- Inhibition of growth of vascular smooth muscle cells ([6]; 75 microg/mL (0.150 mM), Kim et al): approximately 90%
- Duration of sustained antiproliferative effects ([6]; after drug exposure of only 15 min): 48 h

Compound: CCN(CC)CC(=O)Nc1c(C)cccc1C [Lidocaine]
- Concentration at which tension begins to decrease by over 5% relative to the precontracted state ([7]; denuded rings): 200 µM
- Relaxation (percent tension decrease) relative to the precontracted state ([7]; denuded rings, 200 uM): 7%
- Extent of relaxation, percentage of precontracted norepinephrine tension ([7]; denuded rings, drug 10 μM): 100.0 ± 0.4%
- Tension of aortic rings ([7]; denuded rings, drug 10 μM): 3.32 ± 0.12 g
- Extent of relaxation, percentage of precontracted norepinephrine tension ([7]; denuded rings, drug 60 μM): 99.4 ± 0.4%
- Tension of aortic rings ([7]; denuded rings, drug 60 μM): 3.31 ± 0.12 g
- Extent of relaxation, percentage of precontracted norepinephrine tension ([7]; denuded rings, drug 160 μM): 96.8 ± 0.7%
- Tension of aortic rings ([7]; denuded rings, drug 160 μM): 3.24 ± 0.12 g
- Extent of relaxation, percentage of precontracted norepinephrine tension ([7]; denuded rings, drug 360 μM): 93.4 ± 0.6%
- Tension of aortic rings ([7]; denuded rings, drug 360 μM): 3.11 ± 0.12 g
- Tension of aortic rings ([7]; denuded rings, drug 660 μM): 2.92 ± 0.12 g
- Extent of relaxation, percentage of precontracted norepinephrine tension ([7]; denuded rings, drug 1060 μM): 82.4 ± 1.0%
- Tension of aortic rings ([7]; denuded rings, drug 1060 μM): 2.75 ± 0.12 g
- Extent of relaxation, percentage of precontracted norepinephrine tension ([7]; denuded rings, drug 1560 μM): 75.8 ± 2.0%
- Tension of aortic rings ([7]; denuded rings, drug 1560 μM): 2.53 ± 0.13 g
- Concentration at which tension begins to decrease by over 5% relative to the precontracted state ([7]; intact rings): 200 µM
- Relaxation (percent tension decrease) relative to the precontracted state ([7]; intact rings, 10 uM): no change
- Tension expressed as a percent of baseline ([7]; intact rings, 10 uM): 100%
- Relaxation (percent tension decrease) relative to the precontracted state ([7]; intact rings, 50 uM): no change
- Tension expressed as a percent of baseline ([7]; intact rings, 50 uM): 96%
- Relaxation (percent tension decrease) relative to the precontracted state ([7]; intact rings, 100 uM): 5%
- Tension expressed as a percent of baseline ([7]; intact rings, 100 uM): 96%
- Tension expressed as a percent of baseline ([7]; intact rings, 200 uM): 91%
- Relaxation relative to the relaxation of intact adenosine alone ([7]; intact rings, 300 uM): 14%
- Tension expressed as a percent of baseline ([7]; intact rings, 300 uM): 84%
- Relaxation (percent tension decrease) relative to the precontracted state ([7]; intact rings, 400 uM): 24%
- Relaxation relative to the relaxation of intact adenosine alone ([7]; intact rings, 400 uM): 30%
- Tension expressed as a percent of baseline ([7]; intact rings, 400 uM): 76%
- Relaxation relative to the relaxation of intact adenosine alone ([7]; intact rings, 500 uM): 30%
- Tension expressed as a percent of baseline ([7]; intact rings, 500 uM): 72%
- Extent of relaxation, percentage of precontracted norepinephrine tension ([7]; intact rings, drug 10 μM): 99.7 ± 0.2%
- Tension of aortic rings ([7]; intact rings, drug 10 μM): 3.57 ± 0.08 g
- Extent of relaxation, percentage of precontracted norepinephrine tension ([7]; intact rings, drug 60 μM): 97.8 ± 0.7%
- Tension of aortic rings ([7]; intact rings, drug 60 μM): 3.50 ± 0.08 g
- Extent of relaxation, percentage of precontracted norepinephrine tension ([7]; intact rings, drug 160 μM): 96.2 ± 0.6%
- Tension of aortic rings ([7]; intact rings, drug 160 μM): 3.44 ± 0.07 g
- Extent of relaxation, percentage of precontracted norepinephrine tension ([7]; intact rings, drug 360 μM): 91.7 ± 0.5%
- Tension of aortic rings ([7]; intact rings, drug 360 μM): 3.28 ± 0.07 g
- Extent of relaxation, percentage of precontracted norepinephrine tension ([7]; intact rings, drug 660 μM): 84.4 ± 1.2%
- Tension of aortic rings ([7]; intact rings, drug 660 μM): 3.02 ± 0.07 g
- Extent of relaxation, percentage of precontracted norepinephrine tension ([7]; intact rings, drug 1060 μM): 76.2 ± 3.5%
- Tension of aortic rings ([7]; intact rings, drug 1060 μM): 2.73 ± 0.13 g
- Extent of relaxation, percentage of precontracted norepinephrine tension ([7]; intact rings, drug 1560 μM): 72.2 ± 3.5%
- Tension of aortic rings ([7]; intact rings, drug 1560 μM): 2.59 ± 0.14 g
- Dependence of relaxation on an intact endothelium (denuded vs intact rings) [7]: endothelium independent; also recorded: does not appear to be endothelium dependent

Compound: Nc1ncnc2c1ncn2[C@@H]1O[C@H](CO)[C@@H](O)[C@H]1O [Adenosine, 6-amino-9-β-D-ribofuranosyl-9H-purine]
- Half life in the blood [8]: about 10 seconds
- Relaxation of denuded rings as percent of the relaxation of intact rings ([7]; 400 uM): 35%
- Relaxation of denuded rings as percent of the relaxation of intact rings ([7]; 500 uM): 44%
- Greater falls in tension than lidocaine alone ([7]; at 400 and 500 uM): about 30%
- Concentration at which tension begins to decrease by over 5% relative to the precontracted state ([7]; denuded rings): 300 µM
- Tension expressed as a percent of baseline ([7]; denuded rings, 10 uM): 100%
- Tension expressed as a percent of baseline ([7]; denuded rings, 50 uM): 100% and 99%
- Tension expressed as a percent of baseline ([7]; denuded rings, 100 uM): 99% and 98%
- Relaxation (percent tension decrease) relative to the precontracted state ([7]; denuded rings, 200 uM): 4%
- Tension expressed as a percent of baseline ([7]; denuded rings, 200 uM): 95% and 93%
- Tension expressed as a percent of baseline ([7]; denuded rings, 300 uM): 88%
- Extent of relaxation, percentage of precontracted norepinephrine tension ([7]; denuded rings, drug 10 μM): 100.3 ± 0.2%
- Tension of aortic rings ([7]; denuded rings, drug 10 μM): 3.56 ± 0.08 g
- Extent of relaxation, percentage of precontracted norepinephrine tension ([7]; denuded rings, drug 60 μM): 100.0 ± 0.4%
- Tension of aortic rings ([7]; denuded rings, drug 60 μM): 3.55 ± 0.09 g
- Extent of relaxation, percentage of precontracted norepinephrine tension ([7]; denuded rings, drug 160 μM): 98.9 ± 0.5%
- Tension of aortic rings ([7]; denuded rings, drug 160 μM): 3.51 ± 0.09 g
- Extent of relaxation, percentage of precontracted norepinephrine tension ([7]; denuded rings, drug 360 μM): 95.2 ± 1.1%
- Tension of aortic rings ([7]; denuded rings, drug 360 μM): 3.39 ± 0.11 g
- Extent of relaxation, percentage of precontracted norepinephrine tension ([7]; denuded rings, drug 660 μM): 87.6 ± 2.3%
- Tension of aortic rings ([7]; denuded rings, drug 660 μM): 3.12 ± 0.14 g
- Extent of relaxation, percentage of precontracted norepinephrine tension ([7]; denuded rings, drug 1060 μM): 76.6 ± 3.4%
- Tension of aortic rings ([7]; denuded rings, drug 1060 μM): 2.73 ± 0.17 g
- Extent of relaxation, percentage of precontracted norepinephrine tension ([7]; denuded rings, drug 1560 μM): 62.4 ± 4.2%
- Tension of aortic rings ([7]; denuded rings, drug 1560 μM): 2.23 ± 0.17 g
- Concentration at which tension begins to decrease by over 5% relative to the precontracted state ([7]; intact rings): 100 µM
- Relaxation (percent tension decrease) relative to the precontracted state ([7]; intact rings, 10 uM): no change
- Tension expressed as a percent of baseline ([7]; intact rings, 10 uM): 99%
- Relaxation (percent tension decrease) relative to the precontracted state ([7]; intact rings, 50 uM): no change
- Tension expressed as a percent of baseline ([7]; intact rings, 50 uM): 96%
- Tension expressed as a percent of baseline ([7]; intact rings, 100 uM): 89%
- Tension expressed as a percent of baseline ([7]; intact rings, 200 uM): 76%
- Tension expressed as a percent of baseline ([7]; intact rings, 300 uM): 61%
- Tension expressed as a percent of baseline ([7]; intact rings, 400 uM): 48%
- Tension expressed as a percent of baseline ([7]; intact rings, 500 uM): 39%
- Maximum relaxation relative to the precontracted state ([7]; intact rings, at 500 uM): 48%
- Extent of relaxation, percentage of precontracted norepinephrine tension ([7]; intact rings, drug 10 μM): 99.0 ± 0.3%
- Tension of aortic rings ([7]; intact rings, drug 10 μM): 3.65 ± 0.12 g
- Extent of relaxation, percentage of precontracted norepinephrine tension ([7]; intact rings, drug 60 μM): 96.2 ± 0.7%
- Tension of aortic rings ([7]; intact rings, drug 60 μM): 3.54 ± 0.11 g
- Extent of relaxation, percentage of precontracted norepinephrine tension ([7]; intact rings, drug 160 μM): 89.7 ± 1.5%
- Tension of aortic rings ([7]; intact rings, drug 160 μM): 3.30 ± 0.09 g
- Extent of relaxation, percentage of precontracted norepinephrine tension ([7]; intact rings, drug 360 μM): 76.3 ± 3.1%
- Tension of aortic rings ([7]; intact rings, drug 360 μM): 2.81 ± 0.11 g
- Extent of relaxation, percentage of precontracted norepinephrine tension ([7]; intact rings, drug 660 μM): 60.7 ± 4.2%
- Tension of aortic rings ([7]; intact rings, drug 660 μM): 2.23 ± 0.14 g
- Extent of relaxation, percentage of precontracted norepinephrine tension ([7]; intact rings, drug 1060 μM): 48.5 ± 3.9%
- Tension of aortic rings ([7]; intact rings, drug 1060 μM): 1.78 ± 0.13 g
- Extent of relaxation, percentage of precontracted norepinephrine tension ([7]; intact rings, drug 1560 μM): 38.9 ± 2.8%
- Tension of aortic rings ([7]; intact rings, drug 1560 μM): 1.43 ± 0.08 g
- Dependence of relaxation on an intact endothelium (denuded vs intact rings) [7]: dependent on an intact endothelium
